In assay [1] the target is T1, rhesus H3 receptor (Macaca mulatta, UniProt Q865E1). Put plainly: Rhesus H3 [3H]-methylhistamine radioligand binding assay. More on the design: species or system rhesus monkey (Macacca Mulatta). To be noted: [3H]-Methylhistamine 2 nM, rhesus H3 membranes, WGA SPA beads, Cheng-Prusoff. The protocol: (§1) Rhesus H3 membranes were prepared from the Flp-In T-REx 293 Cell Line (Invitrogen) stably transfected with pcDNA5/FRT/TO (Invitrogen) containing the rhesus monkey (Macacca Mulatta) 445 amino acid H3 receptor. (Genbank #AY231164). Stably transfected cultures were amplified in tissue culture flasks by standard tissue culture methods and induced to express rhesus H3 by exposure to 500 ng/ml tetracycline (Cellgro) for 24 hours. After induction, cells were dissociated from flasks utilizing Cell Stripper (Cellgro). Cells were centrifuged (1K×g, 5 min) and pellet frozen in an ethanol-dry ice bath to disrupt cell membranes. Frozen cell pellet was re-suspended in 5 mM HEPES (pH 7.4, Invitrogen) at 10 ml/1000 cm2 of harvested cells. The cell suspension was drawn through an 18 gauge needle (2-3×) followed by a 23 gauge needle (2-3×) to further disrupt cell membranes. The cell suspension was centrifuged (40K×g, 30 min). Cell membrane pellet was re-suspended in 5 mM HEPES (pH 7.4, Invitrogen) at a final protein concentration of 10 mg/ml. Rhesus H3 membranes were stored under liquid nitrogen prior to use in [3H]-Methylhistamine and GTP S radioligand binding assays.
T1 sequence (Q865E1 1-445): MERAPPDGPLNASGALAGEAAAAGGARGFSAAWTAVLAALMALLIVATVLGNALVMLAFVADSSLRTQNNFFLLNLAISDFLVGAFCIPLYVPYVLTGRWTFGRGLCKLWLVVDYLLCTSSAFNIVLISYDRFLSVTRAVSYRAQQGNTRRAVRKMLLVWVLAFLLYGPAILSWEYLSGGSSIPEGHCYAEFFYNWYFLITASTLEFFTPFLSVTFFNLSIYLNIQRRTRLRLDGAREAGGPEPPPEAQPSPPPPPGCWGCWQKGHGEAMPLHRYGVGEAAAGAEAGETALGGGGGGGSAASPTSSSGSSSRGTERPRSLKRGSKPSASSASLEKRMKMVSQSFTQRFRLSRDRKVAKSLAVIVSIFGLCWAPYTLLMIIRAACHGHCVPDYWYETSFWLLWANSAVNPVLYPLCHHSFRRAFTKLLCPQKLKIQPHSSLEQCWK
Rhesus H3 radioligand binding assay was performed using rhesus H3 receptor membranes (prepared as described above), [3H]-Methylhistamine (Perkin Elmer) and WGA SPA beads (wheat germ agglutinin scintillation proximity assay) beads (Amersham). The assay was performed in 96-well Opti-Plates (Packard). Each reaction contained 50 μl rhesus H3 membranes (20-30 μg total protein), 50 μl WGA SPA beads (0.1 μg) and 50 μl of 83 Ci/mmol [^3H]-Methylhistamine (final concentration 2 nM) and 50 μl of tested compound. The compounds of this invention and/or vehicle were diluted with binding buffer from 10 mM DMSO stocks. Assay plates were sealed with TopSeal (Perkin Elmer) and mixed on shaker (25° C., 1 hour). Assay plates were read on TopCount scintillation counter (Packard). Results were analyzed by Hill transformation and Ki values were determined by Cheng-Prusoff equation.

For assay [2], the target named is T1, rhesus H3 receptor. Put plainly: GTPγS radioligand binding assay, inhibition of rhesus H3 constitutive functional activity (inverse agonism). The arrangement: concentration or dose not given beside the values. It is filed as biochemical, rhesus monkey (Macacca Mulatta). To be noted: rhesus H3 cell membranes, relative to basal levels. The procedure:
as §1

Regarding `Cc1cc(N2CCC(N3CCCC3C)C2)ccc1N1CCC2(CCN(C(=O)c3ccc(OC(F)(F)F)cc3)CC2)C1=O` (stereo not drawn) [Example 18, 2-[2-Methyl-4-(2-methyl-[1,3′]bipyrrolidinyl-1′-yl)-phenyl]-8-(4-trifluoromethoxy-benzoyl)-2,8-diaza-spiro[4.5]decan-1-one], the Ki on rhesus H3 receptor [1] was determined as 6.2 nM. Also, the “Inverse Agonism: % inhibition of Basal GTPγS binding in Rhesus H3” value (shortened to “Inverse Agonism: % inhibition”) at rhesus H3 receptor [2] is −10%.

In turn, `Cc1cc(N2CC[C@H](N3CCC[C@@H]3C)C2)ccc1N1CCC2(CCN(C(=O)c3ccc(OC(F)(F)F)cc3)CC2)C1=O` [Example 19, 2-[2-Methyl-4-((2S,3′S)-2-methyl-[1,3′]bipyrrolidinyl-1′-yl)-phenyl]-8-(4-trifluoromethoxy-benzoyl)-2,8-diaza-spiro[4.5]decan-1-one] registered a Ki at rhesus H3 receptor [1] of 1.4 nM. Moreover, the “Inverse Agonism: % inhibition” value at rhesus H3 receptor [2] was −19%.

Compound `Cc1cc(N2CC[C@H](N3CCC[C@@H]3C)C2)ccc1N1CCCC2(CCN(C(=O)OC(C)(C)C)CC2)C1=O` [Example 20, 2-[2-Methyl-4-((2S,3′S)-2-methyl-[1,3′]bipyrrolidinyl-1′-yl)-phenyl]-1-oxo-2,9-diaza-spiro[5.5]undecane-9-carboxylic acid tert-butyl ester] yielded a Ki at rhesus H3 receptor [1] of 6.8 nM. Further, the “Inverse Agonism: % inhibition” value on rhesus H3 receptor [2] is recorded as −18%.

`C[C@H]1CCCN1[C@H]1CCN(c2ccc(N3CCCC4(CCN(C(=O)OC(C)(C)C)CC4)C3=O)cc2)C1` [Example 21, 2-[4-((2S,3′S)-2-Methyl-[1,3′]bipyrrolidinyl-1′-yl)-phenyl]-1-oxo-2,9-diaza-spiro[5.5]undecane-9-carboxylic acid tert-butyl ester]: at rhesus H3 receptor [1], the affinity, expressed as Ki, was 7.3 nM. Besides, at rhesus H3 receptor [2], the “Inverse Agonism: % inhibition” value was −28%.

For the compound `Cc1cc(N2CC[C@H](N3CCC[C@@H]3C)C2)ccc1N1CCCC2(CCN(C(=O)c3ccoc3)CC2)C1=O` [Example 27, 9-(Furan-3-carbonyl)-2-[2-methyl-4-((2S,3′S)-2-methyl-[1,3′]bipyrrolidinyl-1′-yl)-phenyl]-2,9-diaza-spiro[5.5]undecan-1-one], the Ki at rhesus H3 receptor [1] stood at 1.6 nM. Further, the “Inverse Agonism: % inhibition” value on rhesus H3 receptor [2] is reported as −19%.

`C[C@H]1CCCN1[C@H]1CCN(c2ccc(N3CCCC4(CCN(C(=O)c5ccccc5)CC4)C3=O)cc2)C1` [Example 28, 9-Benzoyl-2-[4-((2S,3′S)-2-methyl-[1,3′]bipyrrolidinyl-1′-yl)-phenyl]-2,9-diaza-spiro[5.5]undecan-1-one] gave a Ki on rhesus H3 receptor [1] of 0.5 nM. Besides, the “Inverse Agonism: % inhibition” value at rhesus H3 receptor [2] is −15%.

`C[C@H]1CCCN1[C@H]1CCN(c2ccc(N3CCCC4(CCN(C(=O)c5ccc(F)cc5)CC4)C3=O)cc2)C1` [Example 29]: the Ki on rhesus H3 receptor [1] came to 0.4 nM. The “Inverse Agonism: % inhibition” value at rhesus H3 receptor [2] is given as −17%.

With `C[C@H]1CCCN1[C@H]1CCN(c2ccc(N3CCCC4(CCN(C(=O)C5CCCCC5)CC4)C3=O)c(F)c2)C1` [Example 30, 9-Cyclohexanecarbonyl-2-[2-fluoro-4-((2S,3′S)-2-methyl-[1,3′]bipyrrolidinyl-1′-yl)-phenyl]-2,9-diaza-spiro[5.5]undecan-1-one], the Ki at rhesus H3 receptor [1] came out at 0.7 nM. Also, the “Inverse Agonism: % inhibition” value on rhesus H3 receptor [2] was −22%.

`C[C@H]1CCCN1[C@H]1CCN(c2ccc(N3CCCC4(CCN(C(=O)C5CCOCC5)CC4)C3=O)c(F)c2)C1` [Example 31, 2-[2-Fluoro-4-((2S,3′S)-2-methyl-[1,3′]bipyrrolidinyl-1′-yl)-phenyl]-9-(tetrahydro-pyran-4-carbonyl)-2,9-diaza-spiro[5.5]undecan-1-one] displayed an inhibition constant (Ki) on rhesus H3 receptor [1] of 0.4 nM. On rhesus H3 receptor [2], the “Inverse Agonism: % inhibition” value is reported as −19%.

As to `Cc1cc(N2CC[C@H](N3CCC[C@@H]3C)C2)ccc1N1CCCC2(CCN(C(C)C)CC2)C1=O` [Example 32, 9-Isopropyl-2-[2-methyl-4-((2S,3′S)-2-methyl-[1,3′]bipyrrolidinyl-1′-yl)-phenyl]-2,9-diaza-spiro[5.5]undecan-1-one], the inhibition constant Ki on rhesus H3 receptor [1] worked out at 0.4 nM. Moreover, at rhesus H3 receptor [2], the “Inverse Agonism: % inhibition” value is −14%.

In turn, `Cc1cc(N2CC[C@H](N3CCC[C@@H]3C)C2)ccc1N1CCCC2(CCN(CC3CCCCC3)CC2)C1=O` [Example 33, 9-Cyclohexylmethyl-2-[2-methyl-4-((2S,3′S)-2-methyl-[1,3′]bipyrrolidinyl-1′-yl)-phenyl]-2,9-diaza-spiro[5.5]undecan-1-one] showed an inhibitory constant (Ki) on rhesus H3 receptor [1] of 0.2 nM. In addition, the “Inverse Agonism: % inhibition” value on rhesus H3 receptor [2] is given as −14%.

In the case of `C[C@H]1CCCN1[C@H]1CCN(c2ccc(N3CCCC4(CCN(CC5CC5)CC4)C3=O)cc2)C1` [Example 34, 9-Cyclopropylmethyl-2-[4-((2S,3′S)-2-methyl-[1,3′]bipyrrolidinyl-1′-yl)-phenyl]-2,9-diaza-spiro[5.5]undecan-1-one], at rhesus H3 receptor [1], affinity was put at a Ki of 0.2 nM. Further, the “Inverse Agonism: % inhibition” value on rhesus H3 receptor [2] is given as −16%.

For `C[C@H]1CCCN1[C@H]1CCN(c2ccc(N3CCCC4(CCN(C5CCOCC5)CC4)C3=O)cc2)C1` [Example 35, 2-[4-((2S,3′S)-2-Methyl-[1,3′]bipyrrolidinyl-1′-yl)-phenyl]-9-(tetrahydro-pyran-4-yl)-2,9-diaza-spiro[5.5]undecan-1-one], on rhesus H3 receptor [1], the inhibition constant (Ki) is 0.04 nM. In addition, the “Inverse Agonism: % inhibition” value at rhesus H3 receptor [2] was −18%.

As for `C[C@H]1CCCN1[C@H]1CCN(c2ccc(N3CCCC4(CCN(Cc5ccccc5)CC4)C3=O)c(F)c2)C1` [Example 36, 9-Benzyl-2-[2-fluoro-4-((2S,3′S)-2-methyl-[1,3′]bipyrrolidinyl-1′-yl)-phenyl]-2,9-diaza-spiro[5.5]undecan-1-one], the inhibitory constant (Ki) at rhesus H3 receptor [1] is 0.06 nM. In addition, the “Inverse Agonism: % inhibition” value at rhesus H3 receptor [2] is reported as −13%.

At rhesus H3 receptor [1], `C[C@H]1CCCN1[C@H]1CCN(c2ccc(N3CCCC4(CCN(Cc5ccco5)CC4)C3=O)c(F)c2)C1` [Example 37, 2-[2-Fluoro-4-((2S,3′S)-2-methyl-[1,3′]bipyrrolidinyl-1′-yl)-phenyl]-9-furan-2-ylmethyl-2,9-diaza-spiro[5.5]undecan-1-one] returned an inhibition constant Ki of 0.1 nM. Besides, the “Inverse Agonism: % inhibition” value at rhesus H3 receptor [2] is recorded as −17%.

On rhesus H3 receptor [1], `C[C@H]1CCCN1C1CCN(c2ccc(N3CCC4(CCN(C(=O)OC(C)(C)C)CC4)C3=O)cc2)CC1` [Example 38, 2-{4-[4-(2S-2-Methyl-pyrrolidin-1-yl)-piperidin-1-yl]-phenyl}-1-oxo-2,8-diaza-spiro[4,5]decane-8-carboxylic acid tert-butyl ester] came in with a Ki of 0.008 nM. For the same compound, the “Inverse Agonism: % inhibition” value on rhesus H3 receptor [2] was −25%.

On to `C[C@H]1CCCN1C1CCN(c2ccc(N3CCC4(CCN(C(=O)OC(C)(C)C)CC4)C3=O)c(C(F)(F)F)c2)CC1` [Example 39, 2-{4-[4-(2S-2-Methyl-pyrrolidin-1-yl)-piperidin-1-yl]-2-trifluoromethyl-phenyl}-1-oxo-2,8-diaza-spiro[4.5]decane-8-carboxylic acid tert-butyl ester], for which, at rhesus H3 receptor [1], the Ki was determined as 0.9 nM. Moreover, the “Inverse Agonism: % inhibition” value at rhesus H3 receptor [2] was −22%.

On rhesus H3 receptor [1], `C[C@H]1CCCCN1[C@H]1CCN(c2ccc(N3CCC4(CCN(C(=O)OC(C)(C)C)CC4)C3=O)cc2)C1` [Example 41, 2-{4-[3-((2S,3′S)-2-Methyl-piperidin-1-yl)-pyrrolidin-1-yl]-phenyl}-1-oxo-2,8-diaza-spiro[4.5]decane-8-carboxylic acid tert-butyl ester] yielded an inhibition constant (Ki) of 5.6 nM. On rhesus H3 receptor [2], the “Inverse Agonism: % inhibition” value is −14%.

`C[C@H]1CCCCN1[C@H]1CCN(c2ccc(N3CCC4(CCN(C(=O)OC(C)(C)C)CC4)C3=O)c(C(F)(F)F)c2)C1` [Example 42, 2-{4-[3-((2S,3′S)-2-Methyl-piperidin-1-yl)-pyrrolidin-1-yl]-2-trifluoromethyl-phenyl}-1-oxo-2,8-diaza-spiro[4.5]decane-8-carboxylic acid tert-butyl ester] yielded a Ki on rhesus H3 receptor [1] of 64 nM. At rhesus H3 receptor [2], the “Inverse Agonism: % inhibition” value is recorded as −15%.

In the case of `C[C@H]1CCCCN1[C@H]1CCN(c2ccc(N3CCC4(CCN(C(=O)OC(C)(C)C)CC4)C3=O)c(F)c2)C1` [Example 43, 2-{4-[3-((2S,3′S)-2-Methyl-piperidin-1-yl)-pyrrolidin-1-yl]-2-fluoro-phenyl}-1-oxo-2,8-diaza-spiro[4.5]decane-8-carboxylic acid tert-butyl ester], the inhibition constant Ki at rhesus H3 receptor [1] came out at 4.3 nM. The “Inverse Agonism: % inhibition” value at rhesus H3 receptor [2] was −19%.

In turn, `C[C@H]1CCCN1C1CCN(c2ccc(N3CCC4(CCNCC4)C3=O)cc2)CC1.Cl` [Example 44, 2-{4-[4-(2S-2-Methyl-pyrrolidin-1-yl)-piperidin-1-yl]-phenyl}-2,8-diaza-spiro[4.5]decan-1-one Hydrochloride] registered an inhibitory constant (Ki) on rhesus H3 receptor [1] of 0.1 nM. The “Inverse Agonism: % inhibition” value at rhesus H3 receptor [2] was −19%.

What is called Ki is a dissociation constant, usually derived from enzyme kinetics or from competition with a known ligand.
